For 39 compounds, logD and logP results are on record in the SangsterLogP compilation.

Series [1] in a line: method code SF-RC, from DOI: 10.1002/jlcr.3310, PMID: 26094722. Particulars: pH 7.4.
Series [2] can be described thus: method code SF, from DOI: 10.1021/jm0201114, PMID: 12238930. To be noted: pH 7.4.
Experiment in series [3]: not given
The source holds these as a separate data set.

Series [4] is described as follows: method code SF, from DOI: 10.1023/a:1015958526423, PMID: 2095573.
A short description of series [5]: method code SF-HPLC, from PMID: 4074422. Particulars: pH 7.0.
Experiment in series [6]: not given
This is another data set of the same source.

Experiment in series [7]: not given
The source holds these as a separate data set.

Series [8] is described as follows: method code SF-GR, from DOI: 10.1016/s0022-3565(25)32611-x, PMID: 7230009.
The nature of series [9]: method code pH-metric titration, from DOI: 10.1002/(sici)1096-9063(199607)47:3<265::aid-ps416>3.0.co;2-f.
The nature of series [10]: method code SF-HPLC, from DOI: 10.1002/ps.2780290114.
Series [11] can be described thus: method code SF, from DOI: 10.1021/bi00418a003, PMID: 3196678.
The nature of series [12]: method code SF-HPLC, from DOI: 10.1016/j.ejps.2016.07.010, PMID: 27422078. To be noted: pH 7.4.
Experiment in series [13]: not given
The source holds these as a separate data set.

Series [14] in a line: method code SF-RC, from DOI: 10.1016/0378-5173(86)90124-9.
Experiment in series [15]: not given
The source holds these as a separate data set.

A short description of series [16]: method code SF-HPLC, from DOI: 10.1023/a:1015837931256, PMID: 1788153. Particulars: pH 7.4.
Series [17] in a line: method code SF-HPLC, from DOI: 10.1016/j.ejpb.2012.03.006, PMID: 22469554.
Series [18] in a line: method code SF-RC, from DOI: 10.1002/jlcr.3404, PMID: 27126914. To be noted: pH 7.4.
The nature of series [19]: method code SF-AS, from PMID: 474167.
A short description of series [20]: method code SF, from DOI: 10.1016/j.ejmech.2008.03.040, PMID: 18511157. To be noted: pH 7.4.
Series [21] can be described thus: method code SF-RC, from DOI: 10.1016/0969-8051(94)00118-4, PMID: 7550031. To be noted: pH 7.4.
Series [22] is described as follows: method code SF-HPLC, from DOI: 10.1021/jf0483669, PMID: 15913295. To be noted: pH 7.4.
Series [23] in a line: method code G-HPLC, from DOI: 10.1016/s0045-6535(97)00024-6.
Experiment in series [24]: not given
The source holds these as a separate data set.

A short description of series [25]: method code SF-AS, from PMID: 17296250. To be noted: pH 7.2.
A short description of series [26]: method code SF-HPLC, from Bhosale, A.; Agrawal, G.; Mishra, P. (2004). Preparation and characterization of mutual prodrugs of ibuprofen. Indian Journal of Pharmaceutical Sciences, 66, 158-163. To be noted: pH 1.2.
Series [27] is described as follows: method code SF-AS, from DOI: 10.1016/j.ejmech.2015.02.036, PMID: 25728022. To be noted: pH 7.4.
The nature of series [28]: from Xu, W.; Sun, J.; Zhang, T.; Ma, B.; Chen, D.; He, Z. (2007). Determination of equilibrium solubility of oridonin and its apparent oil-water partition coefficient by HPLC. Journal of Shenyang ….
Series [29] is described as follows: method code SF-AS, from DOI: 10.1016/s0021-9673(03)00617-4, PMID: 12830921.
Series [30] can be described thus: method code SF, from DOI: 10.1021/jm5017544, PMID: 25671691. To be noted: pH 7.4.
Series [31] in a line: method code SF-RC, from DOI: 10.1021/jm300199g, PMID: 22540974. Particulars: pH 7.4.
Series [32] can be described thus: method code SF-AS, from DOI: 10.1248/cpb.26.2832.
Series [33] is described as follows: method code SF-RC, from DOI: 10.1023/a:1015825912542, PMID: 1808606. To be noted: pH 7.2.
Series [34] can be described thus: method code SF, from PMID: 21667. To be noted: pH 10.1.
Experiment in series [35]: not given
The source holds these as a separate data set.

Series [36] can be described thus: method code SF, from DOI: 10.1021/jm4003632, PMID: 23662903. To be noted: pH 7.4.
Experiment in series [37]: not given
This is another data set of the same source.

Series [38] is described as follows: method code SF-AS, from DOI: 10.1016/j.ejmech.2010.07.027, PMID: 20705371.

Non-standard residues stand in square brackets, D forms with d. Residues, ends and D or L forms follow the SMILES beside them.

As usually defined, the logD is lipophilicity at a set pH, counting ionised and neutral species. Consider `CC(C)(C)n1ncc(OCc2cccc(Cn3cc(CCF)nn3)c2)c(Cl)c1=O`, for which the pH-dependent lipophilicity (logD) in series [1] turned out to be 2.54. For orientation: logP means a log measure of how a compound divides between an organic and an aqueous phase. `COc1cc2c(cc1OC)C1Cc3ccc(OC)c(OC)c3CN1CC2` (centres undefined) showed a logP of 2.6.

As for `COc1cc2ncnc(N3CCN(C(=S)NCCc4ccco4)CC3)c2cc1OC`, the logD in series [2] was found to be 2.75. With `COc1cc2c(N)nc(N3CCN(C(=O)OCC(C)(C)O)CC3)nc2c(OC)c1OC`, the logP in [3] came to 1.3. `COc1cc(C)c(/C=C/C(C)=C/C=C/C(C)=C/C(=O)O)c(C)c1C` came in with a logP in series [4] of 6.4.

As for `O=C1CCc2cc(OCCCCc3nnnn3C3CCCCC3)ccc2N1`, the logD in [5] was 2.76.

Consider `O=C(NC1CCCCCCC1)NS(=O)(=O)c1cnccc1Nc1cccc(C(F)(F)F)c1`, for which the lipophilicity (logP) in series [6] amounted to 2.29.

In the case of `O=C(O)c1[nH]c2cc(Cl)cc(Cl)c2c1CN1CC(=O)N(c2cccc(OCCF)c2)C1=O`, in [7], the logP was 2.16. In series [8], `CC1C2CCC3C(O)C2(CC(O)C2(O)C1CC(O)C2(C)C)CC3(C)O` (centres undefined) had a log partition coefficient (logP) of 1.51. For `CCO/N=C(\CC)C1=C(O)CC(c2c(C)cc(C)cc2C)CC1=O` (centres undefined), the logP in series [9] was determined as 4.46. The compound `CCCCS/C(=N\c1cccnc1)SCc1ccc(C(C)(C)C)cc1` registered a lipophilicity (logP) in [10] of 7. Turning to `C[C@]12CC[C@@H]3c4ccc(CCCO)cc4CC[C@H]3[C@@H]1CC[C@@H]2O`, the logP in series [11] was 2.7. Compound `Cc1cc(=O)c2c(O)cc(O)c(C3CCN(C)CC3OC(=O)C(C)(C)C)c2o1` (centres undefined) displayed a logD in series [12] of 1.66. The compound `CCCCCCN1C(=O)NC(c2ccccc2)(c2ccccc2)C1=O` came in with a logP in series [13] of 4.39. Regarding `CCCCC[C@H](O)/C=C/[C@@H]1[C@@H](C/C=C\CCCC(=O)OC)[C@@H](O)C[C@H]1O`, the logP in [14] is 3.07. `O=C(CN1C(=O)c2ccccc2C1=O)N1CCN(Cc2ccc(I)cc2)CC1` gave a logP in series [15] of 3.6. The compound `Nc1nc2c(ncn2COCCOC(=O)c2ccc(CN3CCOCC3)cc2)c(=O)[nH]1` yielded a logD in [16] of -0.05. `O=C(CCCCCCCC(=O)Oc1ccc(O)cc1)Oc1ccc(O)cc1` gave a logP in series [17] of 4.99. For `Cn1cc(C2=C(c3coc4ccccc34)C(=O)NC2=O)c2cc(I)ccc21`, the logD in [18] was determined as 3.18. In the case of `CC(=O)[C@@]1(O)CC[C@H]2[C@@H]3CCC4=CC(=O)CC[C@]4(C)[C@H]3CC[C@@]21C`, in [19], the log partition coefficient (logP) is 3.19. On to `N#Cc1c(C(=O)NC2CCCCC2)nn(-c2ccc(Cl)cc2Cl)c1-c1ccc(I)cc1`, for which, in series [20], the log distribution coefficient (logD) turned out to be 3.9. In [21], `COc1cc2c(cc1OC)C1CC(O)(C=CI)C(CC(C)C)CN1CC2` (centres undefined) yielded a logD of 3.24. For the compound `O=c1c(-c2ccc(O)cc2)coc2cc(O[C@@H]3O[C@H](CO)[C@@H](O)[C@H](O)[C@H]3O)cc(O)c12`, in series [22], the logD stood at 0.97. The compound `c1ccc2nc3c4ccccc4c4ccccc4c3cc2c1` returned a log partition coefficient (logP) in [23] of 5.66. On to `CCN(CC)C(=O)Cc1c(-c2ccc(OC)cc2)nn2c(C)cc(C)nc12`, for which, in series [24], the log partition coefficient (logP) stood at 2.44.

For the compound `CC(C=CC1=C(C)CCC1(C)C)=CC=CC(C)=CC=NNC(N)=S`, the logD in series [25] stood at 1.05. With `CC(C)Cc1ccc(C(C)C(=O)Oc2ccccc2C(N)=O)cc1` (centres undefined), the logD in series [26] is 1.54. In turn, `C=CCn1c(C)nc2cc(Nc3nc(N4CCOCC4)nc4[nH]cnc34)ccc21` returned a pH-dependent lipophilicity (logD) in series [27] of 1.59. As for `C=C1C(=O)[C@]23C(O)C1CC[C@H]2[C@@]12CO[C@]3(O)C(O)[C@@H]1C(C)(C)CCC2O` (some centres undefined), the logP in series [28] is 1.66. Compound `CCC12CCCN3CCc4c(n(c5ccccc45)C(O)(C(=O)OC)C1)C32` (centres undefined) had a logP in series [29] of 2.96. Compound `CN(C)c1ccc(N=Nc2nc3ccc(OCCOCCOCCF)cc3s2)cc1` registered a pH-dependent lipophilicity (logD) in series [30] of 2.05.

As for `CC(C)[C@H](C(=O)NO)N(Cc1ccccc1)S(=O)(=O)c1ccc(OCCF)cc1`, the logD in series [31] came to 2.02. In the case of `CC(=O)[C@H]1CC[C@H]2[C@@H]3CCC4=CC(=O)CC[C@]4(C)[C@H]3C(O)C[C@]12C` (some centres undefined), the lipophilicity (logP) in [32] stood at 2.36. Consider `CC(=O)N[C@H](Cc1ccccc1)C(=O)N[C@H](Cc1ccccc1)C(N)=O` (Ac-[dF]-[dF]-NH2), for which the pH-dependent lipophilicity (logD) in series [33] came out at 1.19.

`COc1ccccc1N1CCN(CCCNc2cc(=O)n(C)c(=O)n2C)CC1`: the log distribution coefficient (logD) in series [34] stood at 1.6. The compound `CC[C@H]1C[C@]2(C)[C@@H](O)CC[C@H]2[C@@H]2CCc3cc(O)ccc3[C@@H]12` displayed a log partition coefficient (logP) in series [35] of 3.8. In [36], `CC(C)n1ncnc1-c1nc2c(s1)CCOc1cc(-c3cnn(CCO)c3)ccc1-2` gave a log distribution coefficient (logD) of 3.9. For `CC[C@H](C)[C@H](N)C(=O)N[C@@H](CC(C)C)C1(c2ccc(Cl)cc2)CCC1`, the lipophilicity (logP) in [37] was determined as 4.75. The compound `CC(C)(C)c1cc(CN2CCOCC2)c(O)c(CN2CCOCC2)c1` showed a lipophilicity (logP) in [38] of 2.03.
